Data published in BindingDB's records for PubMed 31761383 (n/a, 2020).

Experiments:
[1] = biological target: T1, Amine oxidase [flavin-containing] A (Rattus norvegicus, UniProt P21396); test: Inhibition of rat brain synaptosome MAO-A
T1 sequence (P21396 whole entry): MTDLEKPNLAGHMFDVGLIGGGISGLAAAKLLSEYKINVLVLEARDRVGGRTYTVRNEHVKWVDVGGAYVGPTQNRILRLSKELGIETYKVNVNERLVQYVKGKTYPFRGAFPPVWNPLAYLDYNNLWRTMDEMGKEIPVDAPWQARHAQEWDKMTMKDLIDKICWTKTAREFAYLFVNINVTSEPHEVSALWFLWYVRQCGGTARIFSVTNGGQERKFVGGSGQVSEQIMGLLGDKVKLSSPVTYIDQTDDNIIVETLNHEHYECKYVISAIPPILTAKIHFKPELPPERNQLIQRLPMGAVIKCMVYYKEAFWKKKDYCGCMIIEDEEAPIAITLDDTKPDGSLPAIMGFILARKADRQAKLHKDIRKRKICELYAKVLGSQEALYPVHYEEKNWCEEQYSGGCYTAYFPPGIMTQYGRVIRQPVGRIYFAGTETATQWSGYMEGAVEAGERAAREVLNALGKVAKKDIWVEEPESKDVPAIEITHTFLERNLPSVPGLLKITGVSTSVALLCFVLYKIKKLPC

[2] = biological target: T2, Amine oxidase [flavin-containing] B (Rattus norvegicus, UniProt P19643); test: Inhibition of rat brain synaptosome MAO-B
T2 sequence (P19643 whole entry): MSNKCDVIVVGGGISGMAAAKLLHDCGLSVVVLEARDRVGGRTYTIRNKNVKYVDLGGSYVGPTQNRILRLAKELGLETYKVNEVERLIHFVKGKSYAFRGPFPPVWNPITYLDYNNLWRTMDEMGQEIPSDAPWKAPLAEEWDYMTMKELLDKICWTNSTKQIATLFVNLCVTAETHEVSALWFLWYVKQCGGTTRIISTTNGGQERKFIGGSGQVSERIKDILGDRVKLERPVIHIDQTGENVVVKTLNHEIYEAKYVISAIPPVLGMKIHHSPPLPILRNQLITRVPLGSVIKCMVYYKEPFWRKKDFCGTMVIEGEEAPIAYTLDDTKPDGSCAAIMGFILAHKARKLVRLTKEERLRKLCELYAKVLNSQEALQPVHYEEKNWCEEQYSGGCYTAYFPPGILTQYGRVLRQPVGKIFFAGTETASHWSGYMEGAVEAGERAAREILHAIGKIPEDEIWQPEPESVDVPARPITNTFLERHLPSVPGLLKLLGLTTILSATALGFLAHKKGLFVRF

IC50 [1]: 2.3 nM
IC50 [2]: 13 nM
SMILES: Cc1c(C(=O)CC(C#N)C#N)c(=O)n(-c2ccccc2)n1C
